Legend:
primary human islets = experiment: Glucose-stimulated insulin secretion in primary human islets; type: cell-based; conditions: 200 uM, 24 hour pre-incubation, vs vehicle and 20 uM
Method: LG=2.8 mM glucose, HG=16.7 mM glucose, KCl=16.7 mM glucose+30 mM KCl. *p<0.05.
Since beta cell failure is a major underlying cause of both GDM and T2D, the effect of increased CMPF on beta cell function was investigated both in vitro and in vivo. Using physiological concentrations of CMPF (20 uM and 200 uM, as observed in our NGT-pregnant and GDM-pregnant samples respectively (FIG. 2)), as well as a vehicle control (EtOH), its effect was studied on glucose-stimulated insulin secretion (GSIS) and insulin secretion in response to direct depolarization using the secretagogue KCl in an immortalized murine beta cell line (MIN6), as well as primary isolated human and murine islets (FIG. 3A). […] Therefore, high physiologically relevant levels of CMPF impair GSIS.

murine islets = experiment: qPCR mRNA expression in treated murine islets; type: cell-based; conditions: 24 hrs
Method: First, the effect of CMPF treatment on insulin biosynthesis was investigated to determine if insulin is available to be released upon stimulation. MIN6, murine and human islets were treated with vehicle control, 20 uM and 200 uM CMPF for 4 hrs (MIN6) or 24 hrs (islets), and total insulin content measured. […] To determine the mechanism through which CMPF is reducing total insulin content, quantitative PCR (qPCR) was performed on RNA that was isolated from murine islets treated with either vehicle control or 200 uM CMPF for 24 hrs. […] Total RNA was extracted from 24 hour vehicle or CMPF-treated islets using the Qiagen RNeasy Plus mini kit (Hilden, Germany). Microarray analysis was performed as previously described (Basford et al. 2012) using the Affymetrix Mouse 430 2.0 Gene Chip at the University Health Network microarray center (Toronto, Canada). Significant changes were defined as P<0.05. Microarray data will be available on the NCBI GEO database at the time of publication. Human islet microarray data can be found at GE040709. Reverse transcription from total RNA and quantitative real time PCR (qPCR) analysis was performed as previously described (Basford et al. 2012). Primers were designed using Primer3 software (NCBI). Data were normalized to beta actin mRNA.

mice = experiment: Hyperinsulinemic euglycemic clamps after 7 days of IP injections; type: in vivo; conditions: 7 days IP
Method: A) Schematic illustrating injection and surgical timeline. B) Glucose infusion rate (C) glucose appearance and (D) disappearance rates and (E) glycolytic rate in 7 day CMPF-injected mice compared to vehicle controls (N=4/group). […] Values mean±SEM.
Hyperinsulinemic euglycemic clamps were performed as previously described (Liu et al., 2012) following 7 days of IP injections with either CMPF or vehicle. Internal and external cannulation was performed on day 3 of the injection protocol.
As shown in Example 1, elevated plasma CMPF results in glucose intolerance and impaired insulin secretion. […] To more thoroughly examine integrated glucose homeostasis, hyperinsulinemic euglycemic clamps were performed.

mouse islets [1] = experiment: ROS accumulation in isolated islets (mitoSOX red, CM-H2-DCFDA); type: cell-based; conditions: 200 μM, after 4 and 24 hrs of treatment
Method: A) Proinsulin in the media of 24 hr treated islets (n=4/group). B) Mitochondrial membrane potential (MMP) following acute addition of vehicle control or 200 μM of CMPF (N=3/group). C) ROS levels in 4- and 24-hour treated mouse islets with representative images (N=10-15 islets/mouse from 4 mice/group). D) Expression of antioxidant genes Cat and (e) Ucp2 (n=4/group). F) ROS accumulation in 24 hr-treated islets treated with 500 μM NAC (n=10 islets/mouse from 4 mice/group). G) GSIS and (h) total insulin content from 24 hr-treated islets co-treated with 500 μM NAC (n=4/group). Western blots showing (i) Ser9 phosphorylation of GSK3β, (j) Ser473 phosphorylation of AKT (n=3/group). K) Immunofluorescent staining showing nuclear translocation of FOXO1 and (l) PDX1 with CMPF and NAC treatment (n=3-6). Quantification of nuclear percentage of (m) FOXO1 and (n) PDX1 based on immunofluorescent staining with CMPF and NAC treatment. O) Western blots showing protein abundance of PDX1 and FOXO1. Values are mean+/−SEM. Student's t-test (a, c-j, m-o), one-way ANOVA (b). *P<0.05, **P<0.01, ***P<0.001.
The level of superoxide and H2O2 were determined using mitoSOX red and 2′,7′-dichlorodihydro fluorescein diacetate (CM-H2-DCFDA) respectively (Molecular Probes, Invitrogen, Canada) in isolated islets treated with either vehicle control or 200 μM CMPF for 4 or 24 hours, as previously described (Lee et al. 2009). […]

mouse islets [2] = experiment: Western blotting of treated mouse islets; type: cell-based
Method: CMPF-treated and control mouse islets were lysed in RIPA buffer (Cell Signaling, Danvers, Mass., USA) containing protease inhibitor cocktail (Roche, Mississauga, ON, Canada). Lysates were spun at 12,000 rpm and supernatant was loaded onto a 4-15% SDS-PAGE gradient gel (BioRad, Mississauga, ON, Canada) and transferred onto PVDF membrane using a Turbo Blotter (BioRad). The membrane was probed with the corresponding antibodies, and imaged using Kodak Imager 4000pro (Carestream, Rochester, N.Y., USA).
To determine the mechanism through which CMPF decreases insulin biosynthesis we examined its effect on these key regulators. Under normal conditions, AKT and GSK3β have reciprocal activities. Active pAKT phosphorylates and inactivates GSK3β, preventing phosphorylation of downstream targets (Humphrey et al., 2010). […] FOXO1 is normally sequestered in the cytosol due to phosphorylation by AKT (Kitamura et al., 2005). […] Altered activity of these transcription factors is further confirmed by decreased mRNA levels of key target genes including Inst, transcription factors Pdx1 and Mafa, proinsulin processing enzymes CpE, Pc1 and Pc2, and the glucose transporter Glut2 (Boucher et al., 2006; Kaneto et al. 2008) (FIG. 18a).

albumin = albumin (Homo sapiens, UniProt P02768); conditions: cited from earlier work
Chain of albumin (P02768 25-609, species assumed): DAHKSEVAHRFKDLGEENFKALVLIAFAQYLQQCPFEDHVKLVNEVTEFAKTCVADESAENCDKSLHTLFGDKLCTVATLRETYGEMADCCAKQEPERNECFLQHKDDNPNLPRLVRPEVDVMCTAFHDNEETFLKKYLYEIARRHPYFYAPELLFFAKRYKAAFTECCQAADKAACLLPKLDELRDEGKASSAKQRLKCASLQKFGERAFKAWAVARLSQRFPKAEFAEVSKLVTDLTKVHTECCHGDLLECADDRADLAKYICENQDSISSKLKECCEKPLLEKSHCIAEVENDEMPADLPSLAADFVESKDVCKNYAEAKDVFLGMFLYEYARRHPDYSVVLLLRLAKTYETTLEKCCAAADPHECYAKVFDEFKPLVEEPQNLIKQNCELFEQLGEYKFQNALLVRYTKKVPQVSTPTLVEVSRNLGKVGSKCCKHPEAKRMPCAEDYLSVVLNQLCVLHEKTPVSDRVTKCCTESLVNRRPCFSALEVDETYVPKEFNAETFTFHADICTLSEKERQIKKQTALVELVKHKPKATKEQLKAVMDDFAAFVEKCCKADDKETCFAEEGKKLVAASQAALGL

catalase (Cat) expression (murine islets): Increased antioxidant gene expression
Compound: CCCc1oc(CCC(=O)O)c(C(=O)O)c1C [CMPF, 3-carboxy-4-methyl-5-propyl-2-furanpropanoic acid]
GSIS (primary human islets): impairs GSIS | CpE mRNA (murine islets; 200 uM): significantly lower levels | GCK expression (murine islets; 200 uM): trend toward lower expression | GLUT2 expression (murine islets; 200 uM): significantly reduced | HNF4a mRNA (murine islets; 200 uM): significant reduction | MAFA mRNA (murine islets; 200 uM): significant reduction | PCSK1 mRNA (murine islets; 200 uM): trending lower levels | PCSK2 mRNA (murine islets; 200 uM): trending lower levels | PDX1 mRNA (murine islets; 200 uM): significant reduction | insulin mRNA (murine islets; 200 uM): significant reduction | Ucp2 expression (murine islets): Increased antioxidant gene expression | glucose appearance, basal (mice): significantly lower | glycolytic rate, response to insulin (post clamp/basal) (mice): no difference | insulin appearance post-clamp (mice): significantly reduced | glucose infusion rate (mice; N=4/group): significant reduction | increase in ROS over controls (mouse islets [1]): 2 fold | AKT (Ser473) phosphorylation (mouse islets [2]; 24 hr treatment): significantly impaired | GSK3β (Ser9) phosphorylation (mouse islets [2]; 24 hr treatment): significantly impaired | absolute protein levels of PDX1 and FOXO1 (mouse islets [2]; CMPF-treated islets): not significantly different | albumin binding (albumin): highly albumin-bound
